Patent US20220033397A1, “PHARMACEUTICAL COMPOUNDS AND THEIR USE AS INHIBITORS OF UBIQUITIN SPECIFIC PROTEASE 19 (USP19)” (ALMAC DISCOVERY LIMITED, priority 2018, published 2022)

These compounds were tested against T1, Full-length USP19 (Homo sapiens, UniProt O94966) (assay: USP19 fluorescence polarisation (FP) homogeneous assay with Ubiquitin-Lys-TAMRA substrate). Conditions: 2.5 nM USP19, 30 min pre-incubation, average of at least two duplicate experiments.
T1 construct: Full-length USP19 was purchased from Boston Biochem (E-576); purchased Boston Biochem E-576
T1 sequence (O94966 1-1318): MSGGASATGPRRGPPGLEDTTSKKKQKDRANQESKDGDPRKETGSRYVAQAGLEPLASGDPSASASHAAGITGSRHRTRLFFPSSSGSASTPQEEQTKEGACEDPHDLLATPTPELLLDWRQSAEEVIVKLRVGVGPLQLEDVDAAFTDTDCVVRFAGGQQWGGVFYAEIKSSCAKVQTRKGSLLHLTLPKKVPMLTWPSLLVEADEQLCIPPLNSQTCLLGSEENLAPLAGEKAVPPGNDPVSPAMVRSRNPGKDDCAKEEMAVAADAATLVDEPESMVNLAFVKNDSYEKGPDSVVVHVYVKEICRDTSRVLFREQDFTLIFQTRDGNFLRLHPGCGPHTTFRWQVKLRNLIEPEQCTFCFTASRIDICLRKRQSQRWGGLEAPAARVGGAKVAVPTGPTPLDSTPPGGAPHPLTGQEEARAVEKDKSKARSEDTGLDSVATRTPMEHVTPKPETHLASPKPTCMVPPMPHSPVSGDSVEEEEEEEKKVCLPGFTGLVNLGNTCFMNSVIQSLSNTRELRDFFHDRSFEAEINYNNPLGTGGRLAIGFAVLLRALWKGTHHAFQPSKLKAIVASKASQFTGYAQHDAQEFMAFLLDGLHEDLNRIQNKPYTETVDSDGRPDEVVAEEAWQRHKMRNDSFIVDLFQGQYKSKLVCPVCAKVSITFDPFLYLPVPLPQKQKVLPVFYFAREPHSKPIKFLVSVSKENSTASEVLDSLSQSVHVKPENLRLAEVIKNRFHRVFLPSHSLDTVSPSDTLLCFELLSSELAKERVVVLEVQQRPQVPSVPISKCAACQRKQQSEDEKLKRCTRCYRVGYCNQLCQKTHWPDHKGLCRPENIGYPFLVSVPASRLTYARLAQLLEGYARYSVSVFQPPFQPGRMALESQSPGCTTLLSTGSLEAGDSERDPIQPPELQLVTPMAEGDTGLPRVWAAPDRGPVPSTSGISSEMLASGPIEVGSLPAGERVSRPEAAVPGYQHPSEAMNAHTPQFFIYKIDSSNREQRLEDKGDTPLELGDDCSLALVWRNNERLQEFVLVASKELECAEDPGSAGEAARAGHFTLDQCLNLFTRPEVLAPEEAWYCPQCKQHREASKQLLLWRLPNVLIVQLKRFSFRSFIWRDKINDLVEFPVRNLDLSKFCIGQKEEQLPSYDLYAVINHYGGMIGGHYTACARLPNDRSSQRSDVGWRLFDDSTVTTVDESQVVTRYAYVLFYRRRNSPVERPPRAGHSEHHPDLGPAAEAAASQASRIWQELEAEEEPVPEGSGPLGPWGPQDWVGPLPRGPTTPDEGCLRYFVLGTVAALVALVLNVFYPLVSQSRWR
Format: biochemical
Procedure, shortened: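 Full-length USP19 preincubated 30 min at RT with inhibitor (200 μM to 2 μM series, 8–18 points) before adding 500 nM Ubiquitin-Lys-TAMRA substrate.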
Compound `O=C(NCc1ccccc1)N1CCC(O)(Cn2cnc(-c3ccncc3)cc2=O)C2(CCCC2)C1` (stereo not drawn) [Example 201, N-Benzyl-10-hydroxy-10-((6-oxo-4-(pyridin-4-yl)pyrimidin-1(6H)-yl)methyl)-7-azaspiro[4.5]decane-7-carboxamide] has an IC50 of 500 to 5000 nM.
In the case of `CN(Cc1cccc(C#N)c1)C(=O)N1CCC(O)(Cn2cnc(-c3ccccc3)cc2=O)C2(CCCC2)C1` (stereo not drawn) [Example 251, N-(3-Cyanobenzyl)-10-hydroxy-N-methyl-10-((6-oxo-4-phenylpyrimidin-1(6H)-yl)methyl)-7-azaspiro[4.5]decane-7-carboxamide], the IC50 is reported as 500 to 5000 nM.
Work on `O=C(N1CCC(n2cccc2)C1)N1CCC(O)(Cn2cnc(-c3ccccc3)cc2=O)C2(CCCC2)C1` (stereo not drawn) [Example 246, 3-((7-(3-(1H-Pyrrol-1-yl)pyrrolidine-1-carbonyl)-10-hydroxy-7-azaspiro[4.5]decan-10-yl)methyl)-6-phenylpyrimidin-4(3H)-one] yielded an IC50 of 5000 to 50000 nM.
Work on `O=C(N1CCC(O)(Cn2cnc3ccc(F)cc3c2=O)C2(CCCC2)C1)N1CCOC[C@H]1c1ccccc1` (stereo partly drawn) [Example 164, 6-Fluoro-3-((10-Hydroxy-7-((R)-3-phenylmorpholine-4-carbonyl)-7-azaspiro[4.5]decan-10-yl)methyl)quinazolin-4(3H)-one] yielded an IC50 of less than 500 nM.
In the case of `C[C@H](CC1CCCCC1)C(=O)N1CCC(O)(Cn2cc(N=S(C)(C)=O)c(-c3ccccc3)cc2=O)C2(CCCC2)C1` (stereo partly drawn) [Example 72, 1-((7-((R)-3-Cyclohexyl-2-methylpropanoyl)-10-hydroxy-7-azaspiro[4.5]decan-10-yl)methyl)-5-((dimethyl(oxo)-λ^6-sulfaneylidene)amino)-4-phenylpyridin-2(1H)-one], the IC50 is reported as less than 500 nM.
Compound `Cc1ccc(-c2cc(=O)n(C[C@]3(O)CCN(C(=O)N4CCNC[C@H]4c4ccccc4)CC34CCCC4)cn2)cc1` [Example 342, 3-(((S)-10-Hydroxy-7-((R)-2-phenylpiperazine-1-carbonyl)-7-azaspiro[4.5]decan-10-yl)methyl)-6-(p-tolyl)pyrimidin-4(3H)-one] has an IC50 of less than 500 nM.
Compound `O=C(N1CCC(O)(Cn2cnc(-c3ccccc3)cc2=O)C2(CCCC2)C1)N1CCOCC12CCCCC2` (stereo not drawn) [Example 261, 3-((10-Hydroxy-7-(4-oxa-1-azaspiro[5.5]undecane-1-carbonyl)-7-azaspiro[4.5]decan-10-yl)methyl)-6-phenylpyrimidin-4(3H)-one] has an IC50 of 5000 to 50000 nM.
In the case of `C[C@H](CC1CCCCC1)C(=O)N1CCC(O)(Cn2cc(-c3ccccn3)ncc2=O)C(C)(C)C1` (stereo partly drawn) [Example 23, 1-((1-((R)-3-Cyclohexyl-2-methylpropanoyl)-4-hydroxy-3,3-dimethylpiperidin-4-yl)methyl)-5-(pyridin-2-yl)pyrazin-2(1H)-one], the IC50 is reported as 5000 to 50000 nM.
`O=C(N1CC[C@@](O)(Cn2cnc(N3CCC(F)(F)C3)cc2=O)C2(CCCC2)C1)N1CCNC[C@H]1c1ccccc1` [Example 359, 6-(3,3-Difluoro-pyrrolidin-1-yl)-3-(((S)-10-hydroxy-7-((R)-2-phenylpiperazine-1-carbonyl)-7-aza-spiro[4.5]decan-10-yl)methyl)pyrimidin-4(3H)-one] was tested, and the IC50 was less than 500 nM.
Compound `O=C(N1CC[C@@](O)(Cn2cnc(N3CCCCC3)cc2=O)C2(CCCC2)C1)N1CCNC[C@H]1c1ccccc1` [Example 348, 3-(((S)-10-Hydroxy-7-((R)-2-phenylpiperazine-1-carbonyl)-7-aza-spiro[4.5]decan-10-yl)methyl)-6-(piperi-din-1-yl)pyrimidin-4(3H)-one] has an IC50 of less than 500 nM.
Work on `C[C@H](CC1CCCCC1)C(=O)N1CCC(O)(Cn2cnc3ccc(F)cc3c2=O)C2(CCCC2)C1` (stereo partly drawn) [Example 154, 3-((7-((R)-3-Cyclohexyl-2-methylpropanoyl)-10-hydroxy-7-azaspiro[4.5]decan-10-yl)methyl)-6-fluoroquinazolin-4(3H)-one] yielded an IC50 of less than 500 nM.
Compound `O=C(N1CCC(O)(Cn2cnc(-c3ccccc3)cc2=O)C2(CCCCC2)C1)N1CCNC[C@H]1c1ccccc1` (stereo partly drawn) [Example 298, 3-((5-Hydroxy-2-((R)-2-phenylpiperazine-1-carbonyl)-2-azaspiro[5.5]undecan-5-yl)methyl)-6-phenylpyrimidin-4(3H)-one] has an IC50 of less than 500 nM.
